Measurements: ChEMBL document CHEMBL5036313, “Discovery of Novel, Potent Inhibitors of Hydroxy Acid Oxidase 1 (HAO1) Using DNA-Encoded Chemical Library Screening” (J Med Chem, 2021)
≈ marks a conversion by molar mass, not a printed value.

Legend:
[1] = Kinetic solubility of the compound at pH 2; assay type: physicochemical; settings: buffer, read-out: Kinetic_solubility
[2] = Kinetic solubility of the compound at pH 7.4; assay type: physicochemical; settings: buffer, read-out: Kinetic_solubility
[3] = Metabolic stability in human liver microsomes assessed as intrinsic clearance; assay type: ADME, Microsome; settings: read-out: CLH
[4] = Metabolic stability in mouse liver microsomes assessed as intrinsic clearance; assay type: ADME, Microsome; settings: read-out: CLH
[5] = Half life in CD1 mouse plasma at 0.3 mg/kg, iv measured upto 8 hrs; assay type: ADME, organism-based
[6] = Unbound intrinsic clearance in CD1 mouse plasma at 0.3 mg/kg, iv measured upto 8 hrs; assay type: ADME, organism-based; settings: in vivo
[7] = AUCinfinity in CD1 mouse at 10 mg/kg, po measured upto 24 hrs; assay type: ADME, organism-based; design: route oral, dose 10 mg/kg, time <=24; settings: in vivo
[8] = Oral bioavailability in CD1 mouse at 10 mg/kg measured upto 24 hrs; assay type: ADME, organism-based; settings: in vivo

Row | SMILES | solubility kinetic [1] [µM] | solubility kinetic [2] [µM] | CLint scaled [3] [mL/min/kg] | CLint scaled [4] [mL/min/kg] | half-life [5] [h] | CL free [6] [mL/min/kg] | AUC(0-inf) [7] [µM·h] | bioavailability [8] [%]
1 | CC(C)c1csc(-c2cccc(CNc3ccc4[nH]nc(C(=O)O)c4c3)c2O)n1 | 97 (≈ 39.6 µg/mL) | 102 (≈ 41.7 µg/mL) | 10 | 8 |  |  |  | 
2 | CN(C)c1noc(-c2cccc(CNc3ccc4[nH]nc(C(=O)O)c4c3)c2)n1 | 308 (≈ 117 µg/mL) | 255 (≈ 96.5 µg/mL) | 0.5 | 2.9 |  |  |  | 
3 | Cc1nc(-c2cccc(CN(C)c3ccc4[nH]nc(C(=O)O)c4c3)c2)sc1C | 276 (≈ 108 µg/mL) | 254 (≈ 99.7 µg/mL) |  | 45 |  |  |  | 
4 | Cc1csc(-c2cccc(CNc3ccc4[nH]nc(C(=O)O)c4c3)c2O)n1 | 5 (≈ 1.9 µg/mL) | 44 (≈ 16.7 µg/mL) |  | 34 |  |  |  | 
5 | CC(C)c1csc(-c2cccc(CN(C)c3ccc4[nH]nc(C(=O)O)c4c3)c2O)n1 | 175 (≈ 73.9 µg/mL) | 6 (≈ 2.54 µg/mL) |  | 13 |  |  |  | 
6 | Cc1nc(-c2cccc(CNc3ccc4[nH]nc(C(=O)O)c4c3)c2O)sc1C | 20 (≈ 7.89 µg/mL) | 15 (≈ 5.92 µg/mL) | 21 | 15 | 3.3 | 4500 | 46.1 | 19
7 | CC(C)c1coc(-c2cccc(CNc3ccc4[nH]nc(C(=O)O)c4c3)c2O)n1 | 4 (≈ 1.57 µg/mL) | 229 (≈ 89.9 µg/mL) |  | 84 |  |  |  | 

Other lines, results leading:

Row | solubility kinetic [1] [µM] | solubility kinetic [2] [µM] | CLint scaled [3] [mL/min/kg] | CLint scaled [4] [mL/min/kg] | half-life [5] [h] | CL free [6] [mL/min/kg] | AUC(0-inf) [7] [µM·h] | bioavailability [8] [%] | SMILES
8 | 16 (≈ 6.53 µg/mL) | 135 (≈ 55.1 µg/mL) | 14 | 46 | 3.3 | 2444 | 6.8 | 4 | CN(C)c1noc(-c2cccc(CN(C)c3ccc4[nH]nc(C(=O)O)c4c3)c2O)n1
9 | 11 (≈ 4.33 µg/mL) | 227 (≈ 89.3 µg/mL) | 2.4 | 38.1 | 0.4 | 5436 | 0.46 | 2 | CC(C)c1noc(-c2cccc(CNc3ccc4[nH]nc(C(=O)O)c4c3)c2O)n1
10 | 0.4 (≈ 0.158 µg/mL) | 157 (≈ 61.9 µg/mL) | 6.9 | 28.6 | 1.8 | 447 | 11.2 | 6 | CN(C)c1noc(-c2cccc(CNc3ccc4[nH]nc(C(=O)O)c4c3)c2O)n1
11 | 7 (≈ 2.89 µg/mL) | 296 (≈ 122 µg/mL) | 5.8 | 12 |  |  |  |  | CN(C)c1noc(-c2cccc(CNc3ccc4[nH]nc(C(=O)O)c4c3)c2Cl)n1
12 | 0.53 (≈ 0.187 µg/mL) | 0.59 (≈ 0.208 µg/mL) | 55.5 | 1210 |  |  |  |  | CN(C)c1noc(-c2cccc(CNc3cnc4nn[nH]c4c3)c2O)n1
